Earlier results in US9119805B2, “Therapy and prevention of problem drinking” (THE UNIVERSITY OF SYDNEY, priority 2009, dated 2015).
Starred links: 1 amine or outer side, 2 acyl side, 3 side chain; linkers in the order of their positions; H or OH if unused. Positions of bridges follow the written chain, without caps; N, C: chain ends. Residues, ends and D or L forms follow the SMILES beside them. X1 = O=C(CCC[*:2])[*:1]

Tests used:
[1] = animal tests; cited from earlier work
vasopressin receptor = settings: cited from earlier work
[2] = compared with exogenously applied oxytocin; cited from earlier work
dependent drinkers = settings: cited from earlier work
oxytocin receptor = oxytocin receptor (Homo sapiens, UniProt P30559); settings: compared to native oxytocin; cited from earlier work
Sequence of oxytocin receptor (P30559 whole entry): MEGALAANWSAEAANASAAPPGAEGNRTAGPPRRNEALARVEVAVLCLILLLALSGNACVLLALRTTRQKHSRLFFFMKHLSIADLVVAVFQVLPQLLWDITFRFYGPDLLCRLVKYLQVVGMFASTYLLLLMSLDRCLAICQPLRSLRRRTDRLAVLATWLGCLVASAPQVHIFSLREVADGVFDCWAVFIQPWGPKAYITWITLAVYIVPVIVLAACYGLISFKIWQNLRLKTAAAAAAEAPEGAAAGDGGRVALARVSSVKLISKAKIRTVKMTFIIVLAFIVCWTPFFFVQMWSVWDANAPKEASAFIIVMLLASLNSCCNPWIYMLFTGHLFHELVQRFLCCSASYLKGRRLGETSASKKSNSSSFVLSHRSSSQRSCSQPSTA

Cc1cc(C(=O)N2Cc3cnn(C)c3Nc3ccccc32)ccc1CNC(=O)N1CCN(Cc2cc(O)cc(O)c2)CC1 [WAY-267,464]
anti-depressant effect [1]: no apparent anti-depressant effect
centrally-mediated oxytocinergic actions [1]: anxiolytic effects
affinity for the vasopressin receptor (vasopressin receptor): negligible affinity
extent of crossing the blood-brain-barrier [2]: significantly greater extent than exogenously applied oxytocin

CC(=O)NCCCS(=O)(=O)O [acamprosate]
patients continuously abstinent (dependent drinkers; after 6 months, placebo 23%): about 36%

O=C1CC[C@@]2(O)[C@H]3Cc4ccc(O)c5c4[C@@]2(CCN3CC2CC2)[C@H]1O5 [naltrexone]
reduction of relapse (dependent drinkers; oral, during the first 3 months): about 36%

CC[C@H](C)[C@@H]1NC(=O)[C@H](Cc2ccc(OC)cc2)NC(=O)CCCSC[C@@H](C(=O)N2CCC[C@H]2C(=O)N[C@@H](CC(C)C)C(=O)NCC(N)=O)NC(=O)[C@H](CC(N)=O)NC(=O)[C@H](CCC(N)=O)NC1=O [carbetocin, 1-deamino-1-monocarba-[2-O-methyltyrosine]-oxytocin] (Y(Me)IQNCPLG-NH2; linker N-5 via X1)
duration of activity (oxytocin receptor): long-lasting activity

CC1(C)O[C@@H]2[C@@H](CO[C@@]3(COS(N)(=O)=O)OC(C)(C)O[C@@H]23)O1 [Topiramate]
proportion of subjects with 28 consecutive days of abstinence or non-hazardous/harmful drinking (dependent drinkers; short-term abstinence): increased the proportion
